Consider 54 compounds from US20090118135A1, “METHODS AND COMPOUNDS FOR REGULATING APOPTOSIS” (The Burnham Institute, priority 2007, published 2009).

For the assay, the target named is T1, GST-Bfl-1 (Homo sapiens, UniProt Q16548).
T1 construct: lacking their C-terminal transmembrane domains (about the last 20 amino acids) (“ΔTM”); made in house; host or cells: XL-1 Blue E. coli, pGEX 4T-1
T1 sequence (Q16548 1-155 limits assumed): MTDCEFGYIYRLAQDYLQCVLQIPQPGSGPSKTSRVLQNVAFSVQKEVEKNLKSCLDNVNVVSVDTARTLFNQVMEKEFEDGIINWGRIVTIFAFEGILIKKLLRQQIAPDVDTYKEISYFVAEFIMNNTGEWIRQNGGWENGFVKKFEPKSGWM
The assay is described as follows: Bfl-1/FITC-Bid BH3 competitive fluorescence polarization assay. Format: binding. To be noted: primary HTS hits, MLSCN library (PubChem SIDs), Table 5B. Here is the method: A FPA was performed to determine the binding affinity of FITC-Bid BH3 peptide to Bcl-2 proteins. […] IC50 determinations were performed using GraphPad Prism software (GraphPad, Inc., San Diego, Calif.). FPA competition assays were performed using the same procedure described above, except that 100 nM of GST-Bfl-1 protein in a volume of 45 μl was incubated with 5 μl (50 μM) test compounds in DMSO per well for 30 min prior to addition of 50 μl (5 nM) FITC-Bid BH3 peptide. The final DMSO concentration was 5% when the reactions brought to fall volume of 100 μl. Fluorescence polarization was measured after 10 min. Compounds that reduced the fluorescence polarization by 50% were considered hits.
For orientation: Fluorescence polarisation rises when a labelled molecule tumbles more slowly, as on binding a larger partner.

For `CCN1CCN(c2ccc(NC(=O)c3cccc4ncccc34)cc2)CC1` [Compound 842582], the “% Activity” value was 76.3% and the FRatio worked out at 0.21.

For the compound `O=C1c2ccccc2CC1Sc1nnc(-c2ccccn2)o1` (stereo not drawn) [Compound 842657], the “% Activity” value is given as 65.7% and the FRatio is on record as 1.17.

With `Cc1ccc2c(c1C)NC(C(=O)O)C1CC=CC21` (stereo not drawn) [Compound 844096], the “% Activity” value was found to be 98.3% and the FRatio is listed as 0.53.

For `N=c1c(C(=O)NCC2CCCO2)cc2c(=O)n3ccccc3nc2n1Cc1cccnc1` (stereo not drawn) [Compound 844196], the “% Activity” value is 63.4% and the FRatio stood at 0.93.

As to `Cc1c(NC(=O)c2cc3nc(-c4ccccc4)cc(C)n3n2)c(=O)n(-c2ccccc2)n1C` [Compound 844334], the “% Activity” value was 63.5% and the FRatio worked out at 0.88.

For the compound `c1coc(C2Nc3cccc4cccc(c34)N2)c1` [Compound 844697], the “% Activity” value was 78.1% and the FRatio was determined as 1.08.

As to `Cc1nn2c(N)csc2nc1=O` [Compound 846443], the “% Activity” value was 56.4% and the FRatio came to 1.35.

`COc1ccc(OC)c(NC(=O)CCN2CCC(C)CC2)c1` [Compound 846609]: the “% Activity” value is listed as 73% and the FRatio is listed as 0.65.

Turning to `COc1cccc(C(=O)NC2CC3CCCC(C2)N3CC(=O)Nc2ccccc2)c1` (stereo not drawn) [Compound 847772], the “% Activity” value turned out to be 90% and the FRatio is on record as 0.72.

Turning to `O=C(O)CCc1ccc(-c2cccs2)n1CCC(=O)O` [Compound 848328], the “% Activity” value is 74.6% and the FRatio amounted to 0.59.

On to `Cc1cccn2c(=O)c3cc(C(=O)NCC4CCCO4)c(=N)n(Cc4cccnc4)c3nc12` (stereo not drawn) [Compound 849581], for which the “% Activity” value is 60.6% and the FRatio worked out at 0.89.

For `CC(=O)C1=C(O)C(=O)N(Cc2ccccc2)C1c1ccco1` (stereo not drawn) [Compound 851207], the “% Activity” value was 52.6% and the FRatio amounted to 0.52.

Regarding `O=C(CSc1n[nH]c(-c2ccccc2)n1)c1ccc(O)c(O)c1` [Compound 851690], the “% Activity” value was determined as 75.1% and the FRatio is recorded as 0.43.

In the case of `Cc1ccc(C)n1C(Cc1ccccc1)C(=O)O` (stereo not drawn) [Compound 852148], the “% Activity” value was 82.9% and the FRatio came out at 1.37.

Consider `Oc1ccc(Nc2nc(N3CCCC3)c3ccccc3n2)cc1` [Compound 852615], for which the “% Activity” value amounted to 96.1% and the FRatio was 0.46.

Consider `COc1ccc(NC(=O)C2CCN(c3nc(C)nc4c3CCC4)CC2)cc1` [Compound 852694], for which the “% Activity” value came to 66.2% and the FRatio is reported as 1.37.

For `CC1CCN(c2ccc(C(=O)O)cc2N)CC1` [Compound 852908], the “% Activity” value is 73.3% and the FRatio amounted to 0.75.

As to `c1coc(-c2nn3c(-c4ccco4)nnc3s2)c1` [Compound 853208], the “% Activity” value was determined as 60.4% and the FRatio is recorded as 0.83.

`CCN(CC)CCc1c(C)[nH]c(C(=O)OCc2ccccc2)c1C` [Compound 853427]: the “% Activity” value is recorded as 70.8% and the FRatio is on record as 1.

Turning to `CN(C)c1ccc(NC(=O)CN2C(=O)CC(c3ccccc3)=Nc3ccccc32)cc1` [Compound 853473], the “% Activity” value is given as 62.6% and the FRatio came to 0.6.

With `O=C1c2ccccc2C(=O)N1CC#CCN1CCN(C2CCCCC2)CC1` [Compound 856035], the “% Activity” value is reported as 56.3% and the FRatio is 0.7.

For `Cc1c[nH]c2cccc(OCC(O)CNC(C)(C)C)c12` (stereo not drawn) [Compound 856249], the “% Activity” value worked out at 52.2% and the FRatio came out at 0.65.

As for `N#C/C(C(N)=O)=c1/ccc2c(c1)N1C3=C(CCCC3)CC3CCCCC31N=2` (stereo not drawn) [Compound 856266], the “% Activity” value is on record as 74.3% and the FRatio is recorded as 0.62.

In the case of `CCn1c(SC(C)C(=O)O)nc2sc3c(c2c1=O)CCC3` (stereo not drawn) [Compound 856662], the “% Activity” value came to 95.1% and the FRatio came out at 0.59.

Consider `CCn1c(SCC(=O)O)nc2sc3c(c2c1=O)CCC3` [Compound 856717], for which the “% Activity” value is listed as 83% and the FRatio is reported as 0.85.

On to `C=CCn1c(SCC(=O)OC)nc2sc3c(c2c1=O)CCN(C)C3` [Compound 856802], for which the “% Activity” value worked out at 53.2% and the FRatio is listed as 1.23.

Take `CC(=O)C1=C(C)OC(N)=C(C#N)C1c1ccco1` (stereo not drawn) [Compound 857779]: the “% Activity” value amounted to 65.4% and the FRatio came to 1.13.

`O=C(CCN1CCc2ccccc21)c1ccc2c(c1)OCCO2` [Compound 857910]: the “% Activity” value came out at 79.4% and the FRatio came to 0.24.

In the case of `Cc1ccc(N2CN=c3s/c(=C\c4cccnc4)c(=O)n3C2)cc1` [Compound 858221], the “% Activity” value was 78.6% and the FRatio is reported as 0.88.

`Cc1ccc(C)n1Cc1ccc(C(=O)O)cc1` [Compound 858431]: the “% Activity” value was 76.8% and the FRatio was 0.63.

For `CSc1nnc(-c2ccco2)c(-c2ccco2)n1` [Compound 859770], the “% Activity” value worked out at 107% and the FRatio was 0.53.

Take `Cn1c(=N)c(S(=O)(=O)c2ccccc2)cc2c(=O)n3ccccc3nc21` [Compound 859963]: the “% Activity” value is 50.4% and the FRatio was 1.49.

Regarding `O=S(=O)(c1ccccc1)N(CC(O)CN1CCCCC1)c1ccccc1` (stereo not drawn) [Compound 859970], the “% Activity” value was found to be 53.9% and the FRatio came to 0.98.

`CC(=O)Nc1ccc(OC(=O)CC2SC(=O)NC2=O)cc1` (stereo not drawn) [Compound 860139]: the “% Activity” value stood at 68.2% and the FRatio came to 1.06.

Turning to `O=C(CSc1nnc(-c2ccco2)c(-c2ccco2)n1)Nc1ccccc1` [Compound 860234], the “% Activity” value turned out to be 71.5% and the FRatio was found to be 1.17.

As to `Cc1ccc(NC(=O)CSc2nnc(-c3ccco3)c(-c3ccco3)n2)cc1` [Compound 860242], the “% Activity” value is 56.9% and the FRatio came out at 1.34.

Take `O=C(c1coc(=O)c(Br)c1)N1CCOCC1` [Compound 860621]: the “% Activity” value worked out at 84.9% and the FRatio amounted to 0.55.

Regarding `ClC1=CCC2CN(CCN3CCCCC3)CC2C1` (stereo not drawn) [Compound 860752], the “% Activity” value was 67.7% and the FRatio stood at 0.79.

`COC(=O)c1[nH]c2ccc(C)cc2c1NC(=O)CCN1CCN(Cc2ccc3c(c2)OCO3)CC1` [Compound 862218]: the “% Activity” value is 69.7% and the FRatio is on record as 0.81.

With `CC1(C)CCCN(C(=O)c2coc(=O)c(Br)c2)C1` [Compound 862800], the “% Activity” value is recorded as 80.8% and the FRatio was 0.65.

On to `CN(C)CCSc1nc(N)c2c3c(sc2n1)CN(C)CC3` [Compound 862887], for which the “% Activity” value was 72.8% and the FRatio turned out to be 0.98.

For `O=c1nc2s/c(=C\c3ccco3)c(=O)n2nc1Cc1ccc(F)cc1` [Compound 863170], the “% Activity” value is 58.4% and the FRatio is given as 0.32.

`COC(=O)c1[nH]c2cccc(OC)c2c1NC(=O)CCN1CCC(C(N)=O)CC1` [Compound 863493]: the “% Activity” value was determined as 71.7% and the FRatio came out at 0.76.

`CC(=O)c1c(COC(=O)c2ccco2)nc2ccccc2[n+]1[O-]` [Compound 863818]: the “% Activity” value stood at 68.3% and the FRatio is 0.88.

For `C=CCn1c(SCC(=O)c2ccc(O)c(O)c2)nnc1-c1ccccc1OC` [Compound 863840], the “% Activity” value turned out to be 54.2% and the FRatio was determined as 0.88.

On to `COc1ccc(OC)c(N2C(=O)[C@@H]3C(c4ccccc4Cl)=NO[C@@H]3C2=O)c1` [Compound 864036], for which the “% Activity” value is given as 68.5% and the FRatio is 0.89.

Turning to `CN1CCC2=C(C1)SC1C2C(NCc2ccco2)=Nc2nnnn21` (stereo not drawn) [Compound 864825], the “% Activity” value was 96.4% and the FRatio is listed as 1.26.

For the compound `COCCN1CCN2C(=NC3CC(NC(=O)NC4CCCCC4)CCC32)C1` (stereo not drawn) [Compound 865452], the “% Activity” value was determined as 79.7% and the FRatio turned out to be 0.73.

Regarding `O=C1NC(=O)[C@]2(Cc3ccccc3N3CCN(c4ccccc4)CC32)C(=O)N1c1ccccc1` (stereo partly drawn) [Compound 865821], the “% Activity” value came out at 53.1% and the FRatio worked out at 1.21.

On to `c1ccc(-c2nn3c(Cn4nnc5ccccc54)nnc3s2)nc1` [Compound 865899], for which the “% Activity” value was determined as 82.6% and the FRatio worked out at 1.32.

For `Cc1cc(Cl)ccc1OCC(=O)OC(C)C(=O)N(C)C` (stereo not drawn) [Compound 867049], the “% Activity” value is 53.3% and the FRatio worked out at 0.78.

With `Cc1ccc(S(=O)(=O)NC(=O)c2cc(C)n(CCCn3ccnc3)c2C)cc1` [Compound 3173759], the “% Activity” value was found to be 61.5% and the FRatio is on record as 0.99.

Regarding `O=C(CSc1ccc(Cl)cc1)c1ccco1` [Compound 3711335], the “% Activity” value worked out at 75.2% and the FRatio was 0.83.

In the case of `Clc1ccc2nc(CN3CCCc4ccccc43)cn2c1` [Compound 3711377], the “% Activity” value came out at 61.3% and the FRatio was found to be 0.75.
